Experimental data: patent US20150119410A1, “BIOMARKERS OF RESPONSE TO NAE INHIBITORS” (MILLENNIUM PHARMACEUTICALS, INC., priority 2011, published 2015)

Legend:
Assay type in all cases: cell-based
[1] = test system: HCT-116 TP53 +/+ cells; experiment: ATPlite viability assay, isogenic HCT-116 pair; settings: Homo sapiens, HCT-116 TP53 +/+ (wild-type), 72 h, read-out: LC50 (the source's name)
Method: (§1) Paired isogenic HCT-116 cell lines that were either wild-type (+/+) or null (−/−) for p53 expression (HD PAR-018 and HD 104-001, respectively, Horizon Discovery Ltd) were seeded in separate 384-well plates and then treated the following day with a titration of MLN4924 triplicate, and incubated for 24, 36, 48 or 72 h, with seeding densities of 1600, 1200, 800, and 400 cells/well, respectively. Following compound incubation, viability of HCT-116 cells was assessed by ATPlite assay (Perkin Elmer) according to the manufacturer's instructions using the LEADseeker imaging system (GE Healthcare).

[2] = test system: HCT-116 TP53 −/− cells; experiment: ATPlite viability assay, isogenic HCT-116 pair
Method: as §1

[3] = test system: NCl-H520; experiment: Cell line panel 2 high-content screen; settings: NCl-H520 (lung NSCLC); 72 hours
Method: (§2) To support clinical development and identify potential biomarkers of tumor sensitivity or resistance, two large cancer cell line panels (Panel 1, N=653 (McDermott et al. (2007) PNAS 104:19936-19941); Panel 2, N=240 (O'Day et al. (2010) Fourth AACR International Conference on Molecular Diagnostics in Cancer Therapeutic Development)) were treated with MLN4924 and cell viability data (IC50, EC50, and POC—Percentage of Control) were generated.
(§3) Panel 2 (Ricerca Biosciences, Inc., Bothell, Wash.). MLN4924 was added in half-log dilutions for 10 concentrations and treated for 72 hours. High-content cell screening by fluorescence microscopy included image analysis to generate several types of data. Results included EC50 values (after measurement of cell numbers, the EC50 concentration was calculated from the inflection point of a curve of percent of control (POC) against log of MLN4924 concentration), IC50 values (from the POC-log MLN4924 plot, IC50 is the concentration at 50% maximal possible response), apoptosis (measurement of activation of caspase 3 plotted against log of MLN4924 concentration, determined as the concentration for >5 fold induction), and mitotic activity (determined by measuring the fold increase of phospho-histone 3). A comparison of EC50 to IC50 (FIG. 3) allowed assignment of cell lines to sensitive, insensitive or resistant. Final identification of a cell line as sensitive or resistant was based on the EC50 values. The cutoff for sensitivity is a median EC50 of less than the median value of all POC's recorded in the panel (<0.36), borderline sensitivity was associated with median EC50 of 0.36 to 1.67 and insensitive or resistant cell lines were identified by EC50 greater than the 3rd quartile of all POC's in the panel (>1.67).

[4] = test system: T84; experiment: Cell line panel 2 high-content screen; settings: Homo sapiens; T84 (intestine); 72 hours
Method: as §2, §3

[5] = test system: FADU; experiment: Cell line panel 2 high-content screen; settings: Homo sapiens; FADU (upper aerodigestive tract); 72 hours
Method: as §2, §3

[6] = test system: p21; experiment: Western blot of p21 in TP53 −/− HCT-116 cells; settings: TP53 −/− HCT-116 cells treated with MLN4924

NS(=O)(=O)OC[C@@H]1C[C@@H](n2ccc3c(N[C@H]4CCc5ccccc54)ncnc32)C[C@@H]1O [MLN4924, ((1S,2S,4R)-4-{4-[(1S)-2,3-dihydro-1H-inden-1-ylamino]-7H-pyrrolo[2,3-d]pyrimidin-7-yl}-2-hydroxycyclopentyl)methyl sulphamate]
CC50 [1]: 21 ± 1 nM | CC50 ([2]; Homo sapiens, HCT-116 TP53 −/− (null), 72 h, ATPlite, read-out: LC50 (the source's name)): 74 ± 5 nM | cell death at the highest drug concentrations ([2]; TP53 −/− versus TP53 +/+ HCT-116, 24, 36, and 48 h): less cell death | EC50 [3]: 261 nM | EC50 [4]: 556 nM | EC50 [5]: 261 nM | p21 level (Western blots) [6]: still up-regulated
